Experiments:
[1] = biological target: T1, SSCrFCES (LPS-binding domain of C. rotundicauda Factor C, rFCES amino acids 29-330, numbered as in SEQ ID NO: 4) (Carcinoscorpius rotundicauda, UniProt Q26422); test: ELISA-based lipid A binding assay
T1 construct: rFCES (amino acids 29-330); made in house; host or cells: Drosophila S2 cells
T1 sequence (Q26422 29-330): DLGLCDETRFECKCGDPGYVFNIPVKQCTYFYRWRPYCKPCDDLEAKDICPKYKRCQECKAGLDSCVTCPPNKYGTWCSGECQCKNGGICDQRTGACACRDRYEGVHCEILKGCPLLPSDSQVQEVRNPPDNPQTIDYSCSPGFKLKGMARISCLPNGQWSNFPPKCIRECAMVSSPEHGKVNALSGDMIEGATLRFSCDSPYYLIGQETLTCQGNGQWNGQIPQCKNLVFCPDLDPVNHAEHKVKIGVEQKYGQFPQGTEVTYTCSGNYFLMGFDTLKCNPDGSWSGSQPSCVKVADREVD
Protocol: A Polysorp™ 96-well plate (Nunc) was first coated with 100 μl per well of various concentrations of lipid A diluted in pyrogen-free PBS. The plate was sealed and allowed to incubate overnight at room temperature. The wells were aspirated and washed 6 times with 200 μl per wash solution (PBS containing 0.01% Tween-20 and 0.01% thimerosal). Blocking of unoccupied sites was achieved using wash solution containing 0.2% BSA for 1 hour at room temperature. Subsequently, blocking solution was removed and the wells washed as described above. Varying concentrations of SSCrFCES were allowed to interact with bound lipid A at room temperature for 2 hours.
Bound SSCrFCES was detected by sequential incubation with rabbit anti-SSCrFCES antibody (1:1000 dilution) and goat anti-rabbit antibody conjugated with HRP (1:2000 dilution) (Dako). Incubation with each antibody was for 1 h at 37° C. with washing between incubations as described above. In the final step, 100 μl of peroxide substrate ABTS (Boehringer Mannheim) was added. Using a microtiter plate reader, the absorbance of the samples was determined at 405 nm with reference wavelength at 490 nm. The values were correlated to the amount of LPS bound and SSCrFCES present. Quantitation of SSCrFCES was achieved from a standard curve derived by immobilizing known amount of purified SSCrFCES onto a Maxisorp plate.

[2] = biological target: T1, SSCrFCES (LPS-binding domain of C. rotundicauda Factor C, rFCES amino acids 29-330, numbered as in SEQ ID NO: 4); test: Surface plasmon resonance binding to immobilized lipid A; conditions: 400 ng/100 ul SSCrFCES
Protocol: Recognition of lipid A by the abovenamed secreted recombinant proteins and peptides was, performed with a BIAcore X™ biosensor instrument and an HPA sensor chip. Briefly, lipid A at 0.5 mg/ml in PBS was immobilized to a HPA sensor chip (Pharmacia) according to the manufacturer's specification. In all experiments, pyrogen-free PBS was used as the running buffer at a flow rate of 10 μl/min.
With purified SSCrFCES, 4 μg/ml was injected into the flow cell at a rate of 10 μl/min, and the binding response was measured as a function of time. Following injection of SSCrFCES, a solution of INDIA™ HisProbe™-HRP antibody, diluted in PBS to 400 μg/ml, was also injected to cause a shift in SPR in order to further confirm that SSCrFCES binds to lipid A. For regeneration, 100 mM of NaOH solution was injected for 5 minutes. Similar lipid A binding analysis was carried out with SSCrFCsushi-GFP fusion proteins.

[3] = biological target: T2, rFCSN (truncated C. rotundicauda Factor C, CrFC26SN, lacking the LPS-binding domain, from P. pastoris) (Carcinoscorpius rotundicauda, UniProt Q26423); test: Modified Western blot of LPS/lipid A
T2 construct: Pichia pastoris
T2 sequence (Q26423 1-1083): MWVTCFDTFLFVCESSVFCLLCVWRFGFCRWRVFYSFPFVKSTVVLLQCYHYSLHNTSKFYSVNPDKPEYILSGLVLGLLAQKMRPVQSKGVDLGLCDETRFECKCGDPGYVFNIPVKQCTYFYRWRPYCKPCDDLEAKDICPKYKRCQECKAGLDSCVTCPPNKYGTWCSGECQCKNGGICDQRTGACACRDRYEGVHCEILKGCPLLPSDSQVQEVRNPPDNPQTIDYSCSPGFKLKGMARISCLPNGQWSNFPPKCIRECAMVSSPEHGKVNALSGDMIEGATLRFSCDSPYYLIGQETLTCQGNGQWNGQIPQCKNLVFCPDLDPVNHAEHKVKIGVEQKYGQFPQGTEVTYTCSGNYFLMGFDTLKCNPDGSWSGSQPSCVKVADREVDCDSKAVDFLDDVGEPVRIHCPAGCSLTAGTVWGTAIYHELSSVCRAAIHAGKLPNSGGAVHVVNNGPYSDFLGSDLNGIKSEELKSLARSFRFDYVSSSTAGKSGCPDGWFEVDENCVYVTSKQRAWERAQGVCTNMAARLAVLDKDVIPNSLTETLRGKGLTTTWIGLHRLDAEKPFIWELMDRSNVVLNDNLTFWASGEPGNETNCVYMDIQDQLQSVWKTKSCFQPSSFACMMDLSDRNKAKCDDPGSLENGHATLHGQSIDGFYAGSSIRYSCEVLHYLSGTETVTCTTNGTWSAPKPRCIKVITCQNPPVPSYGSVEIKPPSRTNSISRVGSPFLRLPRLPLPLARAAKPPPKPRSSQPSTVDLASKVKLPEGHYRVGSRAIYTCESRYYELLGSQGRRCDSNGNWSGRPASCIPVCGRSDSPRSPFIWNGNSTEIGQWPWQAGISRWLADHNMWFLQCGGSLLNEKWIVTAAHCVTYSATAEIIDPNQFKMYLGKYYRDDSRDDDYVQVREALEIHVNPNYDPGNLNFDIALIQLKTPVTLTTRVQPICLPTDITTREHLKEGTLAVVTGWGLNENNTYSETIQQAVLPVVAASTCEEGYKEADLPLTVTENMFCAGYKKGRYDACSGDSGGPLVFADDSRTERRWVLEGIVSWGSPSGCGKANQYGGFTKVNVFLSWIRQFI
Protocol: LPS from E. coli 055:B5 (Sigma) was reconstituted to 2 μg/μl, and diphosphoryl lipid A from E. coli K12, D31m4 LPS (List Biologicals, Inc., USA) was made up to 1 μg/μl. The LPS-binding assay was based on modifications of earlier described protocols (45,61). Briefly, 10 μg aliquots of LPS/lipid A were electrophoresed on a denaturing 15% SDS-polyacrylamide gel and electroblotted onto Immobilon™ PVDF membrane. The membrane was cut into strips and each LPS/lipid A strip was subsequently incubated with 300 μg of proteins containing rFC. Detection of rFC binding to lipid A was accomplished by incubation with anti-Factor C antibody followed by alkaline phosphatase-conjugated secondary goat anti-rabbit antibody (Dako) and BCIP/NBT colorimetric substrate (Moss, Inc., USA).

BPI pep85-99 (15 mer) = conditions: de Haas et al., 1998; ligand cell empty; read-out: Equilibrium constant; cited from earlier work

Substance: lipid A
- Hill's coefficient [1]: 2.2
- molar ratio of bound SSCrFCES to immobilized lipid A at saturation [1]: 0.37
- stoichiometry, lipid A molecules per SSCrFCES ([1]; at saturation): ~3
- saturation of lipid A [2]: 92%
- binding to the 7-20 kDa lipid A bands [3]: No binding
- Kd (BPI pep85-99 (15 mer)): 1.76 µM

From patent publication US7297551B2, “Recombinant proteins and peptides for endotoxin biosensors, endotoxin removal, and anti-microbial and anti-endotoxin therapeutics” (priority 1998, dated 2007)
